In US8580965B2, “Substituted sulfonamide compounds” (Gruenenthal GmbH, priority 2006, dated 2013):

Key:
[1] = biological target: T1, B1R receptor of the rat (bradykinin 1 receptor) (Rattus norvegicus, UniProt P97583); assay: FLIPR Ca2+ assay (Fluo-4) on CHO K1 cells stably transfected with the B1R gene of the rat; % activation and % inhibition at 10 μM; format: cell-based; conditions: CHO-K1, test substance 10 μM; CHO K1 rB1R cells; Ca2+ inflow after 100 nM Des-Arg9-bradykinin; read-out: B1R antagonism, rat [10 μM] % inhibition
T1 construct: host or cells: CHO K1 cells (rB1R cells)
T1 sequence (P97583 1-337): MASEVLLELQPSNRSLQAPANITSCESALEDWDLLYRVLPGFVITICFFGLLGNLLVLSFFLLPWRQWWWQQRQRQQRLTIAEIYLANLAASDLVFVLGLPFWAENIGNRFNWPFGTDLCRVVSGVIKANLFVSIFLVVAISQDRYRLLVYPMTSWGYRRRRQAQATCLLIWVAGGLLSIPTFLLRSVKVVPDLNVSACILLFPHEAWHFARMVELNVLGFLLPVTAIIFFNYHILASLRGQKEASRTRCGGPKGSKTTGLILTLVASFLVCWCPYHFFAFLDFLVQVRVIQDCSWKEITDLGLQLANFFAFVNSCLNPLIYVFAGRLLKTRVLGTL
Method in brief: (§1)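 CHO K1 cells stably expressing human or rat B1R, Fluo-4 loaded, read by FLIPR (peak fluorescence). Compound at 10 µM first gives % activation versus agonist; after 10 min, agonist (human: 0.5 nM Lys-Des-Arg9-bradykinin; rat: 100 nM Des-Arg9-bradykinin) gives % inhibition relative to maximal inhibition.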

[2] = biological target: T2, human B1R receptor (bradykinin 1 receptor) (Homo sapiens, UniProt P46663); assay: FLIPR Ca2+ assay (Fluo-4) on CHO K1 cells stably transfected with the human B1R gene; % activation and % inhibition at 10 μM; format: cell-based; conditions: CHO-K1, test substance 10 μM; CHO K1 hB1R cells; Ca2+ inflow after 0.5 nM Lys-Des-Arg9-bradykinin; read-out: B1R antagonism, human [10 μM] % inhibition
T2 construct: host or cells: CHO K1 cells (hB1R cells)
T2 sequence (P46663 1-353): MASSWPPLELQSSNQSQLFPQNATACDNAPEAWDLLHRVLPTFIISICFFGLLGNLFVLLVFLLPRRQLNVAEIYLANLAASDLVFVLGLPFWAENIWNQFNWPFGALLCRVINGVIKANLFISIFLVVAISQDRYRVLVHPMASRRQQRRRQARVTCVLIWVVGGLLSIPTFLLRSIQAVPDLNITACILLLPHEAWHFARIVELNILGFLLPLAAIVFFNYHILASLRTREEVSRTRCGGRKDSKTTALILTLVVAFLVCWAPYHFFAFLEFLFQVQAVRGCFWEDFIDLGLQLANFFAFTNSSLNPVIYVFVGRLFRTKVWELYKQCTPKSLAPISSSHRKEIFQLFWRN
Method in brief: as §1

Structure (SMILES)	inhibition at 10 µM [1]	inhibition at 10 µM [2]
O=C(COCC1CCCN1S(=O)(=O)c1cc(Cl)sc1Cl)N1CCC(O)(Cc2ccccc2)CC1 (centres unmarked) [Example 226, 1-(4-benzyl-4-hydroxypiperidin-1-yl)-2-((1-(2,5-dichlorothiophen-3-ylsulfonyl)pyrrolidin-2-yl)methoxy)ethanone]	72.4%	13%
COc1cc(C)c(S(=O)(=O)N2CCC(COCC(=O)N3CCC(O)(c4cccc(C(F)(F)F)c4)CC3)C2)c(C)c1 (centres unmarked) [Example 231, 1-(4-hydroxy-4-(3-(trifluoromethyl)phenyl)piperidin-1-yl)-2-((1-(4-methoxy-2,6-dimethylphenylsulfonyl)pyrrolidin-3-yl)methoxy)ethanone]	98.7%	102%
O=C(COCC1CCCCN1S(=O)(=O)c1c(Cl)cccc1Cl)N1CCC(O)(c2cccc(C(F)(F)F)c2)CC1 (centres unmarked) [Example 235, 2-((1-(2,6-dichlorophenylsulfonyl)piperidin-2-yl)methoxy)-1-(4-hydroxy-4-(3-(trifluoromethyl)phenyl)piperidin-1-yl)ethanone]	99.9%	103%
O=C(COCC1CCCCN1S(=O)(=O)c1c(Cl)cccc1Cl)N1CCC(O)(c2ccc(Cl)c(C(F)(F)F)c2)CC1 (centres unmarked) [Example 236, 1-(4-(4-chloro-3-(trifluoromethyl)phenyl)-4-hydroxypiperidin-1-yl)-2-((1-(2,6-dichlorophenylsulfonyl)piperidin-2-yl)methoxy)ethanone]	99.9%	102%
COc1cc(C)c(S(=O)(=O)N(CCOCC(=O)N2CCC(O)(c3cccnc3)CC2)CC2CC2)c(C)c1C [Example 240, N-(cyclopropylmethyl)-N-(2-(2-(4-hydroxy-4-(pyridin-3-yl)piperidin-1-yl)-2-oxoethoxy)ethyl)-4-methoxy-2,3,6-trimethylphenylsulfonamide]	99.4%	103%
COc1cc(C)c(S(=O)(=O)N(CCOCC(=O)N2CCC(O)(c3cccnc3)CC2)CC(C)C)c(C)c1C [Example 241, N-(2-(2-(4-hydroxy-4-(pyridin-3-yl)piperidin-1-yl)-2-oxoethoxy)ethyl)-N-isobutyl-4-methoxy-2,3,6-trimethylphenylsulfonamide]	101%	103%
COc1cc(C)c(S(=O)(=O)N2CCCCC2COCC(=O)N2CCC(O)(c3ccc(Cl)cc3)CC2)c(C)c1 (centres unmarked) [Example 242, 1-(4-(4-chlorophenyl)-4-hydroxypiperidin-1-yl)-2-((1-(4-methoxy-2,6-dimethylphenylsulfonyl)piperidin-2-yl)methoxy)ethanone]	98.4%	101%
COc1cc(C)c(S(=O)(=O)N2CCCCC2COCC(=O)N2CCC(O)(c3ccc(Br)cc3)CC2)c(C)c1 (centres unmarked) [Example 243, 1-(4-(4-bromophenyl)-4-hydroxypiperidin-1-yl)-2-((1-(4-methoxy-2,6-dimethylphenylsulfonyl)piperidin-2-yl)methoxy)ethanone]	96.8%	104%
COc1cc(C)c(S(=O)(=O)N2CCCCC2COCC(=O)N2CCC(O)(c3ccccc3)CC2)c(C)c1 (centres unmarked) [Example 244, 1-(4-hydroxy-4-phenylpiperidin-1-yl)-2-((1-(4-methoxy-2,6-dimethylphenylsulfonyl)piperidin-2-yl)methoxy)ethanone]	99.3%	105%

More lines, now with the values ahead:

inhibition at 10 µM [1]	inhibition at 10 µM [2]	Structure (SMILES)
80.9%	7.61%	O=C(COCC1CCCN1S(=O)(=O)c1cc(Cl)sc1Cl)N1CCC(O)(c2cccc(C(F)(F)F)c2)CC1 (centres unmarked) [Example 227, 2-((1-(2,5-dichlorothiophen-3-ylsulfonyl)pyrrolidin-2-yl)methoxy)-1-(4-hydroxy-4-(3-(trifluoromethyl)phenyl)piperidin-1-yl)ethanone]
101%	95%	COc1cc(C)c(S(=O)(=O)N2CCC(COCC(=O)N3CCC(O)(c4ccc(Cl)c(C(F)(F)F)c4)CC3)C2)c(C)c1 (centres unmarked) [Example 228, 1-(4-(4-chloro-3-(trifluoromethyl)phenyl)-4-hydroxypiperidin-1-yl)-2-((1-(4-methoxy-2,6-dimethylphenylsulfonyl)pyrrolidin-3-yl)methoxy)ethanone]
100%	65.5%	O=C(COCC1CCCCN1S(=O)(=O)c1cc(Cl)sc1Cl)N1CCC(O)(c2cccnc2)CC1 (centres unmarked) [Example 229, 2-((1-(2,5-dichlorothiophen-3-ylsulfonyl)piperidin-2-yl)methoxy)-1-(4-hydroxy-4-(pyridin-3-yl)piperidin-1-yl)ethanone]
100%	100%	COc1cc(C)c(S(=O)(=O)N2CCC(COCC(=O)N3CCC(O)(c4ccc(Br)cc4)CC3)C2)c(C)c1 (centres unmarked) [Example 230, 1-(4-(4-bromophenyl)-4-hydroxypiperidin-1-yl)-2-((1-(4-methoxy-2,6-dimethylphenylsulfonyl)pyrrolidin-3-yl)methoxy)ethanone]
63.1%	54.5%	COc1cc(C)c(S(=O)(=O)N2Cc3ccccc3CC2COCC(=O)N2CCC(O)(Cc3ccccc3)CC2)c(C)c1C (centres unmarked) [Example 232, 1-(4-benzyl-4-hydroxypiperidin-1-yl)-2-((2-(4-methoxy-2,3,6-trimethylphenylsulfonyl)-1,2,3,4-tetrahydroisoquinolin-3-yl)methoxy)ethanone]
70.2%	38.9%	COc1cc(C)c(S(=O)(=O)N2Cc3ccccc3CC2COCC(=O)N2CCC(O)(c3cccc(C(F)(F)F)c3)CC2)c(C)c1C (centres unmarked) [Example 233, 1-(4-hydroxy-4-(3-(trifluoromethyl)phenyl)piperidin-1-yl)-2-((2-(4-methoxy-2,3,6-trimethylphenylsulfonyl)-1,2,3,4-tetrahydroisoquinolin-3-yl)methoxy)ethanone]
99.3%	102%	O=C(COCC1CCCCN1S(=O)(=O)c1c(Cl)cccc1Cl)N1CCC(O)(c2ccc(Br)cc2)CC1 (centres unmarked) [Example 234, 1-(4-(4-bromophenyl)-4-hydroxypiperidin-1-yl)-2-((1-(2,6-dichlorophenylsulfonyl)piperidin-2-yl)methoxy)ethanone]
100%	103%	COc1cc(C)c(S(=O)(=O)N(CCOCC(=O)N2CCC(O)(c3ccc(Cl)c(C(F)(F)F)c3)CC2)CC2CC2)c(C)c1C [Example 237, N-(2-(2-(4-(4-chloro-3-(trifluoromethyl)phenyl)-4-hydroxypiperidin-1-yl)-2-oxoethoxy)ethyl)-N-(cyclopropylmethyl)-4-methoxy-2,3,6-trimethylphenyl-sulfonamide]
97.4%	57.3%	COc1cc(C)c(S(=O)(=O)N(CCOCC(=O)N2CCC(O)(c3ccc(Cl)c(C(F)(F)F)c3)CC2)CC(C)C)c(C)c1C [Example 238, N-(2-(2-(4-(4-chloro-3-(trifluoromethyl)phenyl)-4-hydroxypiperidin-1-yl)-2-oxoethoxy)ethyl)-N-isobutyl-4-methoxy-2,3,6-trimethylphenylsulfonamide]
98.9%	105%	COc1cc(C)c(S(=O)(=O)N2CCCC2COCC(=O)N2CCC(O)(c3cccs3)CC2)c(C)c1 (centres unmarked) [Example 239, 1-(4-hydroxy-4-(thiophen-2-yl)piperidin-1-yl)-2-((1-(4-methoxy-2,6-dimethylphenylsulfonyl)pyrrolidin-2-yl)methoxy)ethanone]
